Measured values: US20130288991A1, “BLOCK COPOLYMERS FOR STABLE MICELLES” (Intezyne Technologies, Inc., priority 2012, published 2013)
Values belong to the compound of their own block, whether it stands above or below them.

Columns and labels:
[1] = tested on: HCT-116 colon cancer cells; experiment: Anti-tumor efficacy of SN-38 micelles in HCT-116 xenograft model; assay type: in vivo, mice; conditions: irinotecan at 50 mg/kg, IV 3×QW
[2] = Fisher, rat, in vivo, iv, 5 mg/kg
in vivo [3] = conditions: Fisher, rat, iv, 5 mg/kg
A549 lung cancer cells = experiment: In-vitro cytotoxicity of aminopterin formulations (cell titer-glo); assay type: cell-based; conditions: read-out: IC50 (cell viability inhibited by 50%); A549, 72 hours
Procedure: (§1) Cells originally purchased from ATCC (A549, Panc-1, OVCAR3, and BXPC-3) were seeded in 96 well tissue culture plates to be 50% confluent by 24 hours. Cells were incubated at 37° C. with 5.0% CO2. Cells were treated with escalading doses of free aminopterin, crosslinked aminopterin formulation, uncrosslinked aminopterin formulation, and non drug-loaded micelle formulations 24 hours after plate seeding. Free aminopterin was dissolved in DMSO and administered to cells with a total volume of DMSO equal to or less than 0.0025%. Micelle formulations were re-suspended in biology grade water. Dilutions were done in deep well plates with cell media and water or DMSO (for free aminopterin only) equalizing displaced volume. Incubation media was aspirated from the 96 well plates and 100 μl of each dilution was added to the wells in triplicate and incubated over 72 hours at 37° C. with 5.0% CO2. Crosslinked and uncrosslinked non drug-loaded micelle formulations were administered at the four highest doses and were calculated at comparative mg/ml concentrations to drug-loaded micelle concentrations of delivery vehicle. After 72-hour incubation, plates were allowed to cool to room temperature and 25 μl of cell titer-glo was added to each well. Plates were briefly shaken to mix and luminescence readings were read on a plate reader. Luminescence reading for triplicate doses are averaged and divided by average luminescence readings from untreated cells on the same plate to calculate the % of viable cells per dose.
(§2) The aminopterin loaded micelles from Example 119 and Example 121 were tested for cytotoxicity compared to free aminopterin and the crosslinked and uncrosslinked non drug-loaded micelle formulations (from polymer of Example 18) against A549 lung, OVCAR3 ovarian, PANC-1 (folate receptor +) pancreatic and BxPC3 (folate receptor −) pancreatic cancer cell lines. The cytotoxicity profiles for each treatment for each cell line in FIG. 14 (A549 Lung), FIG. 15 (OVCAR3 Ovarian), FIG. 16 (PANC-1 Pancreatic), and FIG. 17 (BxPC3 pancreatic). […] Treatment with both uncrosslinked and crosslinked non drug-loaded micelles was well tolerated, with greater than 80% viability for all cells tested.

[4] = tested on: OVCAR3 ovarian cancer cells; experiment: as above; assay type: cell-based; conditions: OVCAR3, 72 hours
Procedure: as §1, §2

[5] = tested on: PANC-1 pancreatic (folate receptor +) cancer cells; experiment: as above; assay type: cell-based; conditions: read-out: IC50 (cell viability inhibited by 50%); PANC-1, 72 hours
Procedure: as §1, §2

[6] = tested on: BxPC3 pancreatic (folate receptor −) cancer cells; experiment: as above; assay type: cell-based; conditions: BxPC3, 72 hours
Procedure: as §1, §2

in vivo [7] = experiment: in vivo; design: species or system Fisher rats; conditions: Fisher, rat, iv, 10 mg/kg
Procedure: The delivery vehicle for drug administration was isotonic saline. […] Samples were analyzed on a Waters Alliance 2695 equiped with a 2475 fluorescence detector (Ex=470 nm; Em=580). A 5 μL sample injection was made onto a Waters 4 μm Nova Pak C18 (3.9×150 mm) at 30° C. with a flow rate of 0.750 mL per minute of 10 mM phosphate buffer (pH=1.4), methanol and acetonitrile (gradient from 70/10/20 to 40/10/50 for buffer/methanol/acetonitrile was made over eight minutes). Analyte eluted at 5.9 minutes under these conditions, was normalized to the internal standard, and quantitated using a standard curve comprised of seven standards.

SMILES: CCc1c2c(nc3ccc(OC(=O)N4CCC(N5CCCCC5)CC4)cc13)-c1cc3c(c(=O)n1C2)COC(=O)[C@]3(O)CC [irinotecan]
Mean tumor growth rate [1]: 18.9 mm^3 per day

Exposure of cabazitaxel to the plasma compartment over 15 minutes [2]: 0.2 µg·h/mL
Cmax (in vivo [3]): 1.2 µg/mL
SMILES: CO[C@H]1C(=O)[C@]2(C)[C@@H](OC)C[C@H]3OC[C@@]3(OC(C)=O)[C@H]2[C@H](OC(=O)c2ccccc2)[C@]2(O)C[C@H](OC(=O)[C@H](O)[C@@H](NC(=O)OC(C)(C)C)c3ccccc3)C(C)=C1C2(C)C [free cabizataxel, cabazitaxel]

SMILES: Nc1nc(N)c2nc(CNc3ccc(C(=O)N[C@@H](CCC(=O)O)C(=O)O)cc3)cnc2n1 [Aminopterin, aminopterin]
IC50 (A549 lung cancer cells): 0.007 to 0.025 µM
IC50 (cell viability inhibited by 50%) [4]: no IC50 was obtained
IC50 [5]: 0.007 to 0.025 µM
IC50 (cell viability inhibited by 50%) [6]: no IC50 was obtained

AUC (in vivo [7]): 1.3 µg·h/mL
Cmax (in vivo [7]): 3.3 µg/mL
Half-life (terminal, elimination) (in vivo [7]): 3.3 h
half-life (in vivo [7]; Half-life (terminal, elimination)): 3.4 h
SMILES: COc1cccc2c1C(=O)c1c(O)c3c(c(O)c1C2=O)C[C@@](O)(C(C)=O)C[C@@H]3O[C@H]1C[C@H](N)[C@H](O)[C@H](C)O1 [free daunorubicin, daunorubicin]
